Assay results from US20090131343A1, “USE OF BRIDGED MACROLIDES OR TYLOSIN DERIVATIVES IN TREATING INFLAMMATORY BOWEL DISEASES” (priority 2007, published 2009).

System: NFkB
Assay: In vitro inflammatory assay: TNFα-induced NFkB luciferase reporter in Jurkat cells
Assay type: cell-based
Conditions: for IC50 / inhibition at 120 µM: Homo sapiens; for IC50: read-out: IC50 (μM), in vitro inflammatory data (inhibition of NFkB activity)
Experimental: I. Protocol for In Vitro Inflammatory Assay:
• 1. Jurkat cell line expressing a luciferase reporter under the control of an NFkB promoter sequence was created. Clones were isolated using G418 and then characterized for enhanced luciferase activity following stimulation of cells with either TNFα or PMA+Ionomycin. • 2. Assay protocol was as follows: • Day 1: Cells were split to a density of 1.1×10^5 cells/mL. • Day 2: • Cells were adjusted to a density of 2×10^5/mL. • 100 μl of cells were added to each well of a 96-well plate. • Test compounds were diluted to 200 μg/mL in media (1% DMSO). • 100 μl of diluted test compound was added to cells. Final test compound concentration from […] was added and the final DMSO concentration=0.5%. Compounds were tested in duplicate. • Plates were incubated 1 hour at 37° C. • 10 μl of a 2.1 nM TNFα solution was added to each well. Plates were returned to 37° C. for another 4 hours. • TNFα-induced luciferase activity was determined using commercially available kits and a microplate luminometer. • Inhibition of NFkB activity was determined by comparing luciferase activity from test compound-treated cells to luciferase activity in 0.5% DMSO-treated (control) cells.

[1] = Jurkat NFkB-luciferase reporter cells, TNFα stimulation, 1 hour preincubation + 4 hours
[2] = Jurkat NFkB-luciferase reporter cells, TNFα stimulation

| IC50 [1] [µM] | SMILES | further results |
| --- | --- | --- |
|  | CC[C@H]1OC(=O)[C@H](C)[C@@H](O[C@H]2C[C@@](C)(OC)[C@@H](O)[C@H](C)O2)[C@H](C)[C@@H](O[C@@H]2O[C@H](C)C[C@H](N(C)C)[C@H]2O)[C@](C)(O)C[C@@H](C)C(=O)[C@H](C)[C@@H](O)[C@]1(C)O [Erythromycin] | IC50 (μM), in vitro inflammatory data (inhibition of NFkB activity) [1]: Inactive |
| 30 | CC[C@H]1OC(=O)[C@H](C)[C@@H](C)[C@H](C)[C@H](OC2O[C@H](C)C[C@H](N(C)C)[C@@H]2OC(=O)c2ccccc2)[C@](C)(O)C[C@H](C)/C(=N\OCOCCN2CCN(c3ccccc3)CC2)[C@@H](C)[C@H](O)[C@@]1(C)O (stereo partly shown) [Entry 10] |  |
| 17 | CC[C@H]1OC(=O)C[C@@H](O)[C@H](C)[C@@H](OC2O[C@H](C)[C@@H](OC(=O)c3ccccc3)[C@H](C(C)C)[C@H]2OC(=O)c2ccccc2)[C@@H](CC=O)C[C@@H](C)C(=O)/C=C/C(C)=C/[C@@H]1CO (stereo partly shown) [Entry 12] |  |
| 41 | C=CCOC1C(C)OC(O[C@H]2[C@@H](CC=O)C[C@@H](C)C(=O)/C=C/C=C/C[C@@H](C)OC(=O)/C=C/[C@@H]2OC)C(O)C1N(C)C (stereo partly shown) [Entry 8] |  |
|  | CC[C@H]1OC(=O)C[C@@H](O)[C@H](C)[C@@H](O[C@@H]2O[C@H](C)[C@@H](OC(=O)c3ccccc3)[C@H](N(C)C)[C@H]2OC(=O)c2ccccc2)[C@@H](CC=O)C[C@@H](C)C(=O)/C=C/C(C)=C/[C@@H]1CO [compound (3)] | activity in vitro inflammatory assay compared with Erythromycin, Clarithromycin, Josamycin and Tylosin (comparison in words): improved activity |
| > 120 | CC[C@H]1OC(=O)C[C@@H](O)[C@H](C)[C@@H](O[C@@H]2O[C@H](C)[C@@H](O[C@H]3C[C@@](C)(O)[C@@H](O)[C@H](C)O3)[C@H](N(C)C)[C@H]2O)[C@@H](CC=O)C[C@@H](C)C(=O)/C=C/C(C)=C/[C@@H]1CO[C@@H]1O[C@H](C)[C@@H](O)[C@@H](OC)[C@H]1OC [Tylosin] | inhibition at 120 µM [2]: ~20% |
| > 120 | CO[C@@H]1[C@@H](O[C@@H]2O[C@H](C)[C@@H](O[C@H]3C[C@@](C)(O)[C@@H](OC(=O)CC(C)C)[C@H](C)O3)[C@H](N(C)C)[C@H]2O)[C@@H](CC=O)C[C@@H](C)[C@@H](O)/C=C/C=C/C[C@@H](C)OC(=O)C[C@H]1OC(C)=O [Josamycin] | inhibition at 120 µM [2]: ~20% |

| SMILES | IC50 [1] [µM] | further results |
| --- | --- | --- |
| CC[C@@H]1OC(=O)C[C@H](O)[C@@H](C)[C@H](OC2O[C@H](C)[C@H](OC(C)=O)[C@H](N(C)C)[C@@H]2OC(C)=O)[C@H](CCO)C[C@H](C)C(=O)/C=C/C(C)=C/[C@@H]1CO[Si](C)(C)C(C)(C)C (stereo partly shown) [Entry 11] | 22 |  |
